Laboratory results taken from patent publication US8129396B2, “2-[1H-benzimidazol-2(3H)-ylidene]-2-(pyrimidin-2-yl)acetamides and 2-[benzothiazol-2(3H)-ylidene]-2-(pyrimidin-2-yl)acetamides as kinase inhibitors” (Telik, Inc., priority 2008, dated 2012).
pIC50: −log10 of the molar value.

How the values were obtained:
Aurora A kinase = molecular target: T1, Aurora A kinase (Homo sapiens, UniProt O14965); assay: Aurora A kinase assay (IMAP fluorescence polarization); assay type: biochemical; settings: 10 μM ATP; rounded to 1 significant figure; read-out: Aur-A IC50
T1 construct: purchased Upstate Biotech
T1 sequence (O14965 1-403): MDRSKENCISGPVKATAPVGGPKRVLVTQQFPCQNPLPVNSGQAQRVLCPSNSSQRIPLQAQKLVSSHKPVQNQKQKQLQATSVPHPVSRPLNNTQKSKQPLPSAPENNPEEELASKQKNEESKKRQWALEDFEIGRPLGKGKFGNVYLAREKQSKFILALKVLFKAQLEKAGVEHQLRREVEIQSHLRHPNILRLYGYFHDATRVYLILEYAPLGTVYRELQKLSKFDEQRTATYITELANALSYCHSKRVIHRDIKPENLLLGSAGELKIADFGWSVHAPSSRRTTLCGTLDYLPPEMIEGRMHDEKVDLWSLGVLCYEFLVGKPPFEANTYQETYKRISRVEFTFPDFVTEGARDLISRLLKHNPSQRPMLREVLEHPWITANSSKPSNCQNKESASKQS
How it was run: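 Compounds (eight 3-fold dilutions, 2.5% DMSO final) were preincubated 5 min at room temperature with Aurora A kinase in buffer with 1 mM DTT. Reaction with 100 nM fluorescein-PKAtide and 10 μM ATP ran 45 min at room temperature, then was stopped with IMAP binding reagent; fluorescence polarization was read after 30 min.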

Aurora B kinase = molecular target: T2, Aurora B kinase (Homo sapiens, UniProt Q96GD4); assay: Aurora B kinase assay (IMAP fluorescence polarization); assay type: biochemical; settings: 10 μM ATP; rounded to 1 significant figure; read-out: Aur-B IC50
T2 construct: purchased BPS Bioscience
How it was run: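 Reaction started with 100 nM fluorescein-labelled PKAtide and 10 μM ATP, run 45 min at room temperature, then stopped with IMAP binding reagent (1:400). After 30 min shaking at room temperature, fluorescence polarization read; run in duplicate with solvent control.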

VEGFR2 kinase = molecular target: T3, VEGFR2 kinase (Homo sapiens, UniProt P35968); assay: VEGFR2 kinase assay; assay type: biochemical; settings: 6 μM ATP, 1 mM MnCl2; rounded to 1 significant figure
T3 construct: purchased Cell Signaling Technology
How it was run: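 VEGFR2 phosphorylates CSKtide with 6 μM ATP and 1 mM MnCl2 for 1 hr, otherwise following the Aurora A kinase protocol. Detection by IMAP fluorescence polarization, binding reagent diluted 1:1200 in 1:1 binding buffer A/B. Run in duplicate with solvent control.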

p-H3 in HCT116 cells = assay: Histone phosphorylation (p-H3) assay; assay type: cell-based; settings: Homo sapiens, HCT-116; HCT116 cells, 4 hr incubation; read-out: p-H3 IC50
How it was run: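 HCT116 cells (2.5×10^4/well, attached overnight) treated 4 h with 8-point 3-fold compound dilutions at 0.5% DMSO. Lysates dot-blotted onto nitrocellulose and probed for p-H3 with β-actin on the same membrane, fluorescent secondary antibodies, Odyssey scan; duplicate wells.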

[1] = system: HCT116 (human colon carcinoma) cells; assay: HCT116 cytotoxicity assay (CellTiter-Glo); assay type: cell-based; settings: HCT-116, 72 h, cytotoxicity, three days culture, read-out: HCT116 IC50
[2] = system: HL60 (human promyelocytic leukemia) cells; assay: HL60 cytotoxicity assay (CellTiter-Glo); assay type: cell-based; settings: HL-60, 72 h, cytotoxicity, three days culture, read-out: HL60 IC50
Description: The cell lines HL60 (human promyelocytic leukemia) and HCT116 (human colon carcinoma) were obtained from the American Type Culture Collection, Manassas, Va., U.S.A., and HUVEC-2 (human umbilical vein endothelial cells) from BD Biosciences, Bedford, Mass., U.S.A. Aurora A kinase was obtained from Upstate Biotech, Billerica, Mass., U.S.A.; Aurora B kinase from BPS Bioscience, San Diego, Calif., U.S.A.; and VEGFR2 kinase from Cell Signaling Technology, Danvers, Mass., U.S.A. The IMAP FP Screening Express kit was obtained from Molecular Devices, Sunnyvale, Calif., U.S.A.; the CellTiter-Glo assay kit from Promega Corporation, Madison, Wis., U.S.A.; and the Cellular DNA Cytometric Analysis Reagent Kit and BrdU labeling and detection kit from Roche Diagnostics Corporation, Indianapolis, Ind., U.S.A. All products were used in accordance with manufacturer's directions. Kinase inhibition assays and the histone phosphorylation (p-H3) assay were conducted in duplicate, and the cytotoxicity and HUVEC proliferation assays were conducted in triplicate, in each case with solvent control.
Log-phase cells were trypsinized, collected by centrifugation, and resuspended in a small volume of fresh medium, and the density of viable cells was determined following Trypan Blue staining. Cells were diluted in fresh media (1×10^4 cells/mL for HL60 and 4×10^4 cells/mL for HCT116 cells), the test compounds (concentrations between 0.1 μM and 200 μM, dissolved in DMSO, 50 μL) added immediately after dilution to achieve a final DMSO concentration of 0.5%, then the suspensions added at 150 μL/well to 96-well plates, and incubated overnight to allow attachment in the case of adherent cells. The cells were cultured for three days (about three doubling times). The cells were then collected by centrifugation, and 100 μL of the culture supernatant was replaced by the CellTiter-Glo reagent. After incubation for 15 minutes at room temperature, the plate was read with a luminometer.

[3] = system: HUVEC-2 (human umbilical vein endothelial cells); assay: HUVEC VEGF-dependent proliferation assay (BrdU); assay type: cell-based; settings: VEGF (25 ng/mL)-dependent proliferation, read-out: HUVEC IC50
How it was run: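 HUVEC-2 cells on gelatin got serially diluted compound (0.5% DMSO final), and VEGF (25 ng/mL) was added 2 hr later. BrdU (10 μM) went in after one day, with labelling for another day. VEGF-dependent proliferation was read by BrdU detection, in triplicate.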

[4] = system: HL60 (human promyelocytic leukemia) xenograft; assay: HL60 xenograft assay, oral administration; assay type: in vivo, athymic nu/nu mice; settings: for inhibition of tumor growth compared to vehicle: 150 mg/Kg by gavage once/day on days 1-5 and 8-10, measured 1-2 days after last treatment
Experimental: Male athymic nu/nu mice, 6-8 weeks old (about 20 g), were implanted subcutaneously in the right fore flank with about 1×10^7 cells of the HL60 (human promyelocytic leukemia) line that had been grown in antibiotic-free medium for at least two passages. About 6 days after tumor implantation, when the tumor weight was about 50-250 mg, the mice were assigned to treatment groups. […] […] Tumor growth inhibition was measured 1-2 days after the last day of treatment.

T3 sequence (P35968 20-1356): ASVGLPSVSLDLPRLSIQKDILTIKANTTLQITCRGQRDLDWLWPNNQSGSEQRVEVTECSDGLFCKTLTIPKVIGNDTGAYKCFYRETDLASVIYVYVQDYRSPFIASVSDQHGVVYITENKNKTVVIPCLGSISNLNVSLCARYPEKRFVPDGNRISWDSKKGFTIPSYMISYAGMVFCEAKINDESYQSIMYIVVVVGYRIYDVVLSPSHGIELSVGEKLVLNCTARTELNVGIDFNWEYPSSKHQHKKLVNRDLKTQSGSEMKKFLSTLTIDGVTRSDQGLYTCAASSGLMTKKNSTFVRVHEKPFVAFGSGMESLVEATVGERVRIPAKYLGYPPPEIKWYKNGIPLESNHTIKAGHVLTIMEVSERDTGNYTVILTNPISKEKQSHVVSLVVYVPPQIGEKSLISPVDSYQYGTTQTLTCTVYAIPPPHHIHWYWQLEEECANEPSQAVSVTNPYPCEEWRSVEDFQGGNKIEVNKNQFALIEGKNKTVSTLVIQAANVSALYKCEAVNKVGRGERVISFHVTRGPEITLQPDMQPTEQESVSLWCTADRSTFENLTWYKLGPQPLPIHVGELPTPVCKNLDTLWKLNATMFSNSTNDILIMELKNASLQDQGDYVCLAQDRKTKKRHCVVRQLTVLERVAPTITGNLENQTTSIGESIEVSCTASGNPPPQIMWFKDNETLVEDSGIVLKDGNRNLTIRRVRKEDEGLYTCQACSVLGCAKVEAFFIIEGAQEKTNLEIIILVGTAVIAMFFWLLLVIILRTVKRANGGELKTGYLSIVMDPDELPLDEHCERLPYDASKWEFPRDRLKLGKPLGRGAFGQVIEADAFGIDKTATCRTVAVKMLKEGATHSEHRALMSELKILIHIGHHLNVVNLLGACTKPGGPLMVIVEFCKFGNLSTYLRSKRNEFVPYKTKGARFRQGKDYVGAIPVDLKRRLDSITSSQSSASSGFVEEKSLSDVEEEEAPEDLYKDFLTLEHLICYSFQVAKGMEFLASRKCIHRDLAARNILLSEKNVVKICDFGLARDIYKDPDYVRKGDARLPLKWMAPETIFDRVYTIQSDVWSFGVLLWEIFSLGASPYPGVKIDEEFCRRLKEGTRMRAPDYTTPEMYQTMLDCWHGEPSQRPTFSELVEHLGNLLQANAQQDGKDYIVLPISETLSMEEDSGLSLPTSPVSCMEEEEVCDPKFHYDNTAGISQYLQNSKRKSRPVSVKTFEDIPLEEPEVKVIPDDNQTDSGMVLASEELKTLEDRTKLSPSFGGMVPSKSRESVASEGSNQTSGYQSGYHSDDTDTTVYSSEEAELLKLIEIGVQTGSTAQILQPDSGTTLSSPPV
T2 sequence (Q96GD4 whole entry): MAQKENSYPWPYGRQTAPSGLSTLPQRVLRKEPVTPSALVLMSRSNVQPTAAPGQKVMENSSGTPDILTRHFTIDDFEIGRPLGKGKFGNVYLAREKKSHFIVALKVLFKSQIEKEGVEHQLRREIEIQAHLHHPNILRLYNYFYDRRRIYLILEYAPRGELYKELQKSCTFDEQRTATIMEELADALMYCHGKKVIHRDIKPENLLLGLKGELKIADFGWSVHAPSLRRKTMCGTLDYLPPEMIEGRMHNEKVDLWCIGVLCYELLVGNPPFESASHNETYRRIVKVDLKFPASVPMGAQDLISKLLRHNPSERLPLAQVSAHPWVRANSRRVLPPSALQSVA

| SMILES | pIC50 (Aurora A kinase) | pIC50 (Aurora B kinase) | pIC50 (VEGFR2 kinase) | pIC50 (p-H3 in HCT116 cells) | pIC50 [1] | pIC50 [2] | pIC50 [3] | tumor inhibition relative to vehicle ([4]; dissolved at 10 mg/mL in 0.1M sodium acetate pH5) | inhibition of tumor growth compared to vehicle [4] |
| --- | --- | --- | --- | --- | --- | --- | --- | --- | --- |
| CN1CCCC[C@H]1C(=O)Nc1ccc2c(c1)N/C(=C(/C(N)=O)c1nccc(C(F)(F)F)n1)N2 [Compound 142A] | 8.70 | 8.40 | 8.00 | 6.52 | 6.52 | 6.70 | 7.05 | 89% | – |
| CN1CCC[C@H]1C(=O)Nc1ccc2c(c1)N/C(=C(/C(N)=O)c1nccc(C(F)(F)F)n1)N2 [Compound 77A] | 8.10 | 8.15 | 8.05 | 7.00 | 6.70 | 6.52 | 7.05 | – | 75% |
| NC(=O)/C(=C1\Nc2ccc(NC(=O)CCCN3CCOCC3)cc2N1)c1nccc(C(F)(F)F)n1 [Compound 85A] | 8.30 | 8.40 | 7.70 | 7.30 | 6.52 | 7.22 | 7.70 | – | 45% |
| CC(C)(N)C(=O)Nc1ccc2c(c1)N/C(=C(/C(N)=O)c1nccc(C(F)(F)F)n1)N2 [Compound 81A] | 8.22 | 8.15 | 8.05 | 7.05 | 6.52 | 6.70 | 7.10 | – | – |
| NC(=O)/C(=C1\Nc2ccc(NC(=O)[C@H]3CCCN3)cc2N1)c1nccc(C(F)(F)F)n1 [Compound 79A] | 7.70 | 7.70 | 8.00 | 6.40 | 7.00 | 6.52 | 7.40 | – | – |
| NC(=O)/C(=C1\Nc2ccc(C(=O)NCCN3CCOCC3)cc2S1)c1nccc(C(F)(F)F)n1 [Compound 54A] | 8.22 | 8.00 | 8.00 | 6.40 | 6.40 | 6.52 | 7.52 | – | – |
| NC(=O)/C(=C1\Nc2ccc(C(=O)N3CCNCC3)cc2S1)c1nccc(C(F)(F)F)n1 [Compound 61A] | 7.70 | 8.00 | 8.40 | 7.52 | 7.00 | 6.70 | 7.70 | – | – |
| NC(=O)/C(=C1\Nc2ccccc2S1)c1nccc(C(F)(F)F)n1 [Compound 2A] | 7.52 | 8.22 | 7.05 | 5.70 | 5.70 | 5.52 | 7.30 | – | – |
| NC(=O)/C(=C1\Nc2ccc(C(=O)NCCN3CCOCC3)cc2N1)c1nccc(C(F)(F)F)n1 [Compound 53A] | 8.52 | 8.00 | 7.70 | 6.70 | 6.52 | 6.70 | 7.52 | – | – |
| CN(C)CC(=O)Nc1ccc2c(c1)S/C(=C(/C(N)=O)c1nccc(C(F)(F)F)n1)N2 [Compound 74A] | 7.70 | 8.00 | 7.70 | 6.70 | 6.52 | 7.40 | 7.10 | – | – |
| CN1CCC[C@H]1C(=O)Nc1ccc2c(c1)S/C(=C(/C(N)=O)c1nccc(C(F)(F)F)n1)N2 [Compound 78A] | 7.22 | 7.40 | 7.30 | 6.22 | 5.70 | 6.00 | 6.40 | – | – |
| CCN(CCCn1ccnc1)C(=O)c1ccc2c(c1)N/C(=C(/C(N)=O)c1nccc(C(F)(F)F)n1)N2 [Compound 48A] | 8.00 | 9.00 | 8.00 | 6.52 | 6.22 | 7.00 | 7.40 | – | – |
| NC(=O)/C(=C1\Nc2ccc(C(=O)NCCn3ccnc3)cc2S1)c1nccc(C(F)(F)F)n1 [Compound 47A] | 8.40 | 8.22 | 7.70 | 6.70 | 6.52 | 6.52 | 8.40 | – | – |
| NC(=O)/C(=C1\Nc2ccc(C(=O)NCCCn3ccnc3)cc2N1)c1nccc(C(F)(F)F)n1 [Compound 45A] | 7.70 | 8.15 | 7.70 | 6.05 | 6.30 | 7.00 | 8.00 | – | – |
| NC(=O)/C(=C1\Nc2ccc(Cn3ccnc3)cc2N1)c1nccc(C(F)(F)F)n1 [Compound 90A] | 8.40 | 8.05 | 8.40 | 7.15 | 6.70 | 7.00 | 7.05 | – | – |
| NC(=O)C(=C1Nc2cc(F)c(F)cc2N1)c1nccc(C(F)(F)F)n1 [Compound 38A] | 7.40 | 8.00 | 6.70 | 6.52 | 6.10 | 6.00 | 7.00 | – | – |
| CCN(CCCN1CCOCC1)C(=O)c1ccc2c(c1)S/C(=C(/C(N)=O)c1nccc(C(F)(F)F)n1)N2 [Compound 42A] | 8.00 | 8.22 | 7.70 | 6.52 | 6.30 | 7.52 | 7.40 | – | – |
| NC(=O)/C(=C1\Nc2ccc(Oc3cccnc3)cc2S1)c1nccc(C(F)(F)F)n1 [Compound 118A] | 7.40 | 8.00 | 7.00 | 5.40 | 5.70 | 6.52 | 6.70 | – | – |
| NC(=O)/C(=C1\Nc2ccc(CCN3CCS(=O)(=O)CC3)cc2S1)c1nccc(C(F)(F)F)n1 [Compound 100A] | 8.30 | 8.05 | 8.00 | 6.52 | 6.40 | 7.05 | 7.70 | – | – |
| NC(=O)/C(=C1\Nc2ccc(CCN3CCSCC3)cc2S1)c1nccc(C(F)(F)F)n1 [Compound 103A] | 7.70 | 8.00 | 7.70 | 5.70 | 5.70 | 7.00 | 7.00 | – | – |
